From ChEMBL document CHEMBL1201862, “PubChem BioAssay data set” (2004)
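Results reflect a 48-hour exposure of cells in 96-well plates to compound at five concentrations. Abbreviation: GI50, concentration required for 50% inhibition of growth.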 The source made the active and inactive calls. No stated cut-off is given here; in the data, active = GI50 up to about 1.1 µM and inactive = higher.

Tests used:
Assay in all cases: NCI tumour cell line growth inhibition, 48 h
TK-10 = tested on: TK-10
M14 = tested on: M14
HCT-116 = tested on: HCT-116
IGROV-1 = tested on: IGROV-1
SF-539 = tested on: SF-539
CCRF-CEM = tested on: CCRF-CEM
SK-MEL-5 = tested on: SK-MEL-5
UO-31 = tested on: UO-31
Malme-3M = tested on: Malme-3M
SF-295 = tested on: SF-295
NCI-H522 = tested on: NCI-H522
SR = tested on: SR
SK-MEL-28 = tested on: SK-MEL-28
NCI-H23 = tested on: NCI-H23
UACC-257 = tested on: UACC-257
K562 = tested on: K562
RXF 393 = tested on: RXF 393
SW-620 = tested on: SW-620
PC-3 = tested on: PC-3
MCF7 = tested on: MCF7

Measured: GI50

c1ccc(N2CCN(CCCN3CCc4c([nH]c5ccccc45)C3c3cccnc3)CC2)cc1 (stereo unspecified)
inactive: TK-10 23.7 µM | M14 20.2 µM | HCT-116 35.2 µM | IGROV-1 > 100 µM | SF-539 83.9 µM | CCRF-CEM 88.3 µM | SK-MEL-5 > 70.3 µM | UO-31 > 100 µM | Malme-3M > 46.9 µM | SF-295 > 100 µM | NCI-H522 86.9 µM | SR 27 µM | SK-MEL-28 61.9 µM | NCI-H23 > 100 µM | UACC-257 24.6 µM | K562 23.6 µM | RXF 393 > 100 µM | SW-620 > 100 µM

Cc1ccc(NC(=O)c2cc3ccccc3c(/N=N/c3cc(S(=O)(=O)O)ccc3O)c2O)c(C)c1
inactive: TK-10 25.1 µM | M14 7.43 µM | HCT-116 29.9 µM | IGROV-1 16.3 µM | CCRF-CEM 3.3 µM | SK-MEL-5 23.7 µM | UO-31 4.44 µM | Malme-3M 16.4 µM | SF-295 10 µM | NCI-H522 25.4 µM | SK-MEL-28 18.7 µM | PC-3 14.5 µM | NCI-H23 16.6 µM | UACC-257 23.8 µM | K562 23 µM | RXF 393 17.5 µM | SW-620 10.9 µM

CN(C)c1ccc(C=C2C(=O)OC(C)(C)OC2=O)cc1Br
inactive: TK-10 > 100 µM | M14 > 100 µM | HCT-116 48.9 µM | SF-539 > 100 µM | CCRF-CEM > 100 µM | SK-MEL-5 > 100 µM | UO-31 > 100 µM | Malme-3M > 100 µM | SF-295 > 100 µM | NCI-H522 > 100 µM | SR 59.6 µM | SK-MEL-28 > 100 µM | NCI-H23 > 100 µM | UACC-257 > 100 µM | K562 82.6 µM | RXF 393 > 100 µM | SW-620 > 100 µM

CC(C)COC(=O)N1N=NC2C3CC(=O)C(O3)C21 (stereo unspecified)
inactive: TK-10 22.9 µM | M14 > 100 µM | HCT-116 > 100 µM | IGROV-1 > 100 µM | SF-539 > 100 µM | CCRF-CEM > 100 µM | SK-MEL-5 > 100 µM | UO-31 > 100 µM | Malme-3M > 100 µM | SF-295 > 100 µM | NCI-H522 > 100 µM | SR > 100 µM | SK-MEL-28 > 100 µM | NCI-H23 > 100 µM | UACC-257 > 100 µM | K562 > 100 µM | RXF 393 > 100 µM | SW-620 > 100 µM

CN1C2CCC1CC(CCNC(c1ccccc1)c1ccccc1)C2 (stereo unspecified)
inactive: TK-10 22.2 µM | M14 11.6 µM | HCT-116 18.3 µM | IGROV-1 62.7 µM | SF-539 17.9 µM | CCRF-CEM 36 µM | SK-MEL-5 12.9 µM | UO-31 17.2 µM | Malme-3M 17.3 µM | SF-295 22.5 µM | NCI-H522 25.2 µM | SR 15.3 µM | SK-MEL-28 17.3 µM | PC-3 37.6 µM | NCI-H23 > 100 µM | UACC-257 16.4 µM | K562 6.5 µM | RXF 393 14.4 µM | SW-620 79.6 µM

COc1cc2c(cc1OC)C1=C(C=O)c3ccc(OC)c(OC)c3C(O)N1CC2 (stereo unspecified)
inactive: TK-10 20.9 µM | M14 21.9 µM | HCT-116 30.5 µM | SF-539 12.9 µM | CCRF-CEM 33.7 µM | SK-MEL-5 13.3 µM | UO-31 37.5 µM | Malme-3M 24.5 µM | SF-295 24 µM | NCI-H522 25.1 µM | SK-MEL-28 31 µM | PC-3 17.5 µM | NCI-H23 24.8 µM | UACC-257 18.5 µM | SW-620 37.2 µM | MCF7 32.6 µM

CCc1cccc(CC)c1NC1=CC(=O)C(=O)c2ccccc21
inactive: TK-10 23.9 µM | M14 13.5 µM | HCT-116 18.4 µM | IGROV-1 15.1 µM | SF-539 19.5 µM | CCRF-CEM > 100 µM | SK-MEL-5 10 µM | UO-31 18.7 µM | Malme-3M 17.9 µM | SF-295 13 µM | NCI-H522 14.1 µM | SR 29.9 µM | SK-MEL-28 15.6 µM | NCI-H23 1.49 µM | UACC-257 15 µM | K562 59.4 µM | RXF 393 23.9 µM | SW-620 16.5 µM

O/N=C/c1ncccc1C1OCCO1
inactive: TK-10 > 100 µM | M14 > 100 µM | HCT-116 > 100 µM | IGROV-1 > 100 µM | SF-539 > 100 µM | CCRF-CEM > 100 µM | SK-MEL-5 > 100 µM | UO-31 > 100 µM | Malme-3M > 100 µM | SF-295 > 100 µM | NCI-H522 > 100 µM | SR > 100 µM | SK-MEL-28 > 100 µM | NCI-H23 > 100 µM | UACC-257 > 100 µM | K562 > 100 µM | RXF 393 > 100 µM | SW-620 > 100 µM

Cc1ccc(N2C(=O)N(c3ccc(C)cc3)C3(SC=NN3C)C2=O)cc1 (stereo unspecified)
inactive: TK-10 66.4 µM | M14 69.8 µM | HCT-116 46.6 µM | IGROV-1 > 100 µM | SF-539 > 100 µM | CCRF-CEM 40.6 µM | SK-MEL-5 30 µM | UO-31 42 µM | Malme-3M 95.5 µM | SF-295 47.8 µM | NCI-H522 37.8 µM | SR 58.3 µM | SK-MEL-28 > 100 µM | NCI-H23 35.2 µM | UACC-257 38.6 µM | K562 40.6 µM | RXF 393 59.6 µM | SW-620 > 100 µM

Cc1ccc(/C=N/n2c(Cc3ccccc3)n[nH]c2=O)cc1
inactive: TK-10 > 100 µM | M14 > 100 µM | HCT-116 > 100 µM | IGROV-1 > 100 µM | SF-539 > 100 µM | CCRF-CEM > 100 µM | SK-MEL-5 > 100 µM | UO-31 > 100 µM | Malme-3M > 100 µM | SF-295 35.9 µM | NCI-H522 > 100 µM | SR > 100 µM | SK-MEL-28 > 100 µM | PC-3 > 100 µM | NCI-H23 > 100 µM | UACC-257 > 100 µM | K562 > 100 µM | RXF 393 > 100 µM | SW-620 > 100 µM

O=C1NC(=S)NC(=O)C1=Cc1ccc(-c2ccccc2)cc1
inactive: TK-10 > 100 µM | M14 > 100 µM | HCT-116 51.3 µM | IGROV-1 > 100 µM | SF-539 > 100 µM | CCRF-CEM 36.3 µM | SK-MEL-5 > 100 µM | UO-31 > 100 µM | Malme-3M > 100 µM | SF-295 > 100 µM | PC-3 > 100 µM | NCI-H23 > 100 µM | UACC-257 > 100 µM | K562 31.6 µM | RXF 393 94.4 µM | SW-620 > 100 µM | MCF7 72.8 µM

N/C(=N\O)N/N=C/c1ccc2c(c1)OCCO2
inactive: HCT-116 21.7 µM | IGROV-1 12.4 µM | SF-539 17.1 µM | CCRF-CEM 33.7 µM | SK-MEL-5 7.21 µM | UO-31 8.65 µM | SF-295 6.59 µM | NCI-H522 6.65 µM | SK-MEL-28 21.4 µM | NCI-H23 25.6 µM | UACC-257 18.6 µM | K562 7.85 µM | RXF 393 27.9 µM | SW-620 28.2 µM | MCF7 22.1 µM

COC(=O)CCC(=O)CC(=O)C1=NS(=O)(=O)c2nc(S(N)(=O)=O)c(Cl)cc2N1
inactive: TK-10 > 100 µM | M14 > 100 µM | HCT-116 > 100 µM | IGROV-1 > 100 µM | SF-539 > 100 µM | CCRF-CEM 45 µM | SK-MEL-5 > 100 µM | UO-31 > 100 µM | Malme-3M > 100 µM | SF-295 > 100 µM | NCI-H522 64.3 µM | SR > 100 µM | SK-MEL-28 > 100 µM | NCI-H23 > 100 µM | UACC-257 > 100 µM | K562 > 100 µM | RXF 393 > 100 µM

CC(C)(C)c1cc(Cc2ccc(S(C)(=O)=O)cc2)c(O)c(C(C)(C)C)c1
inactive: TK-10 17.9 µM | M14 15.4 µM | HCT-116 14 µM | IGROV-1 14.9 µM | SF-539 16.7 µM | CCRF-CEM 12.3 µM | SK-MEL-5 16.3 µM | UO-31 16.1 µM | Malme-3M 18.1 µM | SF-295 13.2 µM | NCI-H522 12.1 µM | SR 13.2 µM | SK-MEL-28 18.2 µM | NCI-H23 16.8 µM | UACC-257 17 µM | K562 13.8 µM | RXF 393 12.9 µM | SW-620 17.1 µM

CCOC(=O)C(C(=O)OCC)c1ccc([N+](=O)[O-])o1
inactive: TK-10 16.9 µM | M14 13.7 µM | HCT-116 15.6 µM | IGROV-1 20.3 µM | SF-539 19.9 µM | CCRF-CEM 2.53 µM | SK-MEL-5 17.3 µM | UO-31 15.6 µM | Malme-3M 6.73 µM | SF-295 20.6 µM | NCI-H522 1.74 µM | SR 6.93 µM | SK-MEL-28 14.1 µM | NCI-H23 17.6 µM | UACC-257 14.7 µM | K562 3.43 µM | RXF 393 12.4 µM | SW-620 3.39 µM

CC(C)(C1=NC(C(C)(C)C)CO1)C1=N[C@@H](C(C)(C)C)CO1 (stereo partly specified)
inactive: TK-10 > 100 µM | M14 > 100 µM | HCT-116 > 100 µM | IGROV-1 > 100 µM | SF-539 > 100 µM | CCRF-CEM > 100 µM | SK-MEL-5 > 100 µM | UO-31 > 100 µM | Malme-3M > 100 µM | SF-295 > 100 µM | NCI-H522 > 100 µM | SR > 100 µM | SK-MEL-28 > 100 µM | NCI-H23 > 100 µM | UACC-257 > 100 µM | K562 > 100 µM | RXF 393 > 100 µM | SW-620 > 100 µM
